The source of these data is article PMC12655252, “Synthesis of 1H-Pyrrolo[3,2-g]isoquinoline Derivatives as Ligands Targeting Haspin Kinase” (Molecules, 2025).

Each structure is given as a SMILES string.

This assay has as its system endogenous Haspin kinase (phosphorylation of Histone H3 on Thr3) in U2OS cells. Description: H3T3ph immunofluorescence assay in U2OS cells (cellular endogenous Haspin activity). It counts as cell-based. As to conditions: 1 μM, 16 h, positive control. Here is the method:
In order to assess the ability of our most interesting compounds to inhibit cellular endogenous Haspin kinase, we evaluated their effects on the phosphorylation of Histone H3 on Thr3, a bona fide Haspin substrate (Figure 4). We treated osteosarcoma U2OS cells with 2.5 μM of selected compounds for 16 h before quantifying H3T3 phosphorylation by immunofluorescence on early mitotic cells (Figure 4A,B). […] This discrepency could be explained by the inability of this compound to cross the plasma membrane or by reduced stability in a cellular environment.
Ethical approval for this study was obtained (9 July 2025) from DGRI-LabOGM (APPROVAL NUMBER: L1-2373). U2OS cells (purchased from ATCC, Manassas, VA, USA, reference HTB-96) were grown in DMEM medium (Dulbecco’s Modified Eagle Medium, High glucose; GlutaMAX, Life Technologies, Carlsbad, CA, USA) supplemented with 10% fetal bovine serum (Gibco, Grand Island, NY, USA) in a 5% CO2 humidified atmosphere. Cells grown on coverslips were treated for 16 h with each compound or 0.025% DMSO, then fixed with 4% paraformaldehyde in PBS, permeabilized by 0.15% Triton-X100 for 2 min, and blocked for 12 min in 4% BSA in PBS. Immunofluorescence assay was performed using standard protocols with a rabbit anti-phospho-Thr3 Histone H3 and a mouse anti-a-Tubulin (B-5-1-2) obtained from Merck Millipore, Burlington, MA, USA (1/2000 dilution). Coverslips were mounted with Vectashield containing DAPI (Vector Laboratories, Newark, CA, USA). Images were acquired with a Coolsnap HQ2 CCD camera (Photometrics, Tucson, AZ, USA) on a Zeiss Axio microscope (Carl Zeiss, Oberkochen, Germany) using a 63x NA 1.46 objective. Image acquisition and processing were performed using Zen Blue (Carl Zeiss). The H3T3ph signal on chromosomes was normalized against the DAPI signal and analyzed using ImageJ software (NIH, Version 1.54p). Graphs were produced and statistical analysis was performed using GraphPad Prism 10. p-values were determined by t-test; n.s., not significant; **** p ≤ 0.0001.
Figure 4 Evaluation of selected compounds on cellular endogenous Haspin activity. (A) U2OS cells were treated with 2.5 μM of each compound or 1 μM of CHR6494 (CHR) or DMSO for 16 h. Immunofluorescence assay was performed with anti-pH3T3 antibody (green) and anti-a-Tubulin (red); DNA was labelled with DAPI (blue). Representative images of early mitotic cells for each condition are presented. Scale bar: 5 μm. (B) Scatter plot representing H3T3ph/DAPI signal ratio indicative of Haspin activity; n > 17 mitotic cells per condition. n.s., not significant; **** p ≤ 0.0001.

For `CCCNc1ccc2ncc(-c3ccc4[nH]ncc4c3)n2n1` [CHR-6494, reference compound], the “Effect on endogenous Haspin activity (H3T3 phosphorylation)” value was “abolished Haspin activity”.
